Test results taken from patent EP0286316A1, “1,2,4-Trioxane Derivatives” (Jefford, Charles W., priority 1987, dated 1988).

Columns and labels:
[1] = system: Plasmodium falciparum chloroquine-resistant clone: Indochina-W2 (IndCh-W2); test: in vitro anti-malarial activity, semiautomated microdilution technique, chloroquine-resistant clone; assay type: cell-based; conditions: for I-QHS: index of activity (IC50) relative to Qinghaosu under the same conditions; for I-CHLQ: index of activity (IC50) relative to chloroquine under the same conditions
Source text: (§1) Determination of anti-malarial activity of the compounds was effected according to the methods published by R E Desjardins et al and W K Milhous et al (Desjardins, R.E., C.J. Cranfield, D.E. Haynes, and J.D. Chulay. 1979. Quantitative assessment of anitmalarial activity in vitro by a semiautomated microdilution technique. Antimicrob. Agents Chemother. 16:710-718. Milhous, W.K., N.F. Weatherley, J.H. Bowdre, and R.E. Desjardins. 1985. In vitro activities of and mechanisms of resistance to antifol antimalarials. Antimicrob. Agents Chemother. 27:525-530). For such determinations, the following clones of Plasmodium falciparum were used: chloroquine-resistant clone: Indochina-W2 (IndCh-W2) chloroquine-sensitive clone: Sierra Leone-D6 (SL-D6) The activity measured was then compared as indexes under the same conditions to the activity of Qinghaosu (I-QHS) and chloroquine (I-CHLQ), respectively. The indexes (I) provide a measure of the activity of the 1,2,4-trioxane derivatives tested in relation to the activity of the known anti-malarial substances.

[2] = system: Plasmodium falciparum chloroquine-sensitive clone: Sierra Leone-D6 (SL-D6); test: in vitro anti-malarial activity, semiautomated microdilution technique, chloroquine-sensitive clone; assay type: cell-based; conditions: clone S6-D6; for I-QHS: index of activity (IC50) relative to Qinghaosu under the same conditions; for I-CHLQ: index of activity (IC50) relative to chloroquine under the same conditions
Source text: as §1

[3] = system: chloroquine-resistant strains of P. falciparum; conditions: cited from earlier work
[4] = system: mefloquine-resistant clones of Plasmodium falciparum (MEF-W2); test: in vitro anti-malarial activity, mefloquine-resistant clones; assay type: cell-based; conditions: index of activity (IC50) relative to Qinghaosu; clone MEF-W2
Source text: as §1
Certain derivatives of 1,2,4-trioxane listed below were tested against mefloquine-resistant clones of Plasmodium falciparum (MEF-W2), according to the method previously cited.

[5] = system: mixed lymphocyte reaction; test: immunomodulatory activity (in vitro mitogenic assay; mixed lymphocyte reaction); assay type: cell-based
Procedure: Several of the compounds mentioned in Examples 1 to 17 were also tested for immunomodulatory activity (in vitro mitogenic assay; mixed lymphocyte reaction).

Structure (SMILES) | I-QHS [1] | I-CHLQ [1] | I-QHS [2] | I-CHLQ [2] | activity against chloroquine-resistant strains of P. falciparum [3] | I-QHS [4] | immunomodulatory activity [5]
CC1(C)OO[C@]2(c3ccccc3)C=C(c3ccccc3)[C@@H](OC(=O)c3ccccc3F)[C@@H]2O1 [Compound 7] | 0.04 | 1.6 | 0.05 | 0.06 |  |  | 
C1=C(c2ccccc2)C[C@@]2(c3ccccc3)OOC3(CCCC3)O[C@@H]12 [Compound 4] | 2.1 | 12.2 | 0.79 | 0.82 |  |  | 
O=C1C(c2ccccc2)=C[C@@]2(c3ccccc3)OOC3(CCCCC3)O[C@@H]12 [Compound 15] | 3.5 |  | 1.93 |  |  |  | 
O[C@@H]1C(c2ccccc2)=C[C@@]2(c3ccccc3)OOC3(CCCCC3)O[C@@H]12 [Compound 16] | 1.6 |  | 0.49 |  |  |  | 
C[C@@H]1CC[C@H]2[C@@H](C)C(=O)O[C@@H]3O[C@@]4(C)CC[C@@H]1[C@]32OO4 [Qinghaosu] |  |  |  |  | remarkably active |  | 
CC1(C)OO[C@]2(c3ccccc3)C=C(c3ccccc3)C(=O)[C@@H]2O1 [Compound 9] | 0.08 | 3.5 | 0.20 | 0.21 |  |  | 
CC(C)CC(=O)O[C@@H]1C(c2ccccc2)=C[C@@]2(c3ccccc3)OOC(C)(C)O[C@@H]12 [Compound 10] | 0.04 | 1.7 | 0.09 | 0.10 |  |  | 
CCOC(=O)CCCC1(C)OO[C@]2(c3ccccc3)CC(c3ccccc3)=C[C@@H]2O1 (stereo partly drawn) [Compound 18] | 0.09 |  | 0.28 |  |  |  | 
CC1(C)OO[C@]2(c3ccccc3)CC(c3ccccc3)=C[C@@H]2O1 [Compound 1] | 0.13 | 5.7 | 0.18 | 0.20 |  | 0.15 | 
C1=C(c2ccccc2)C[C@@]2(c3ccccc3)OOC3(CCC4(CC3)OCCO4)O[C@@H]12 (racemic) [Compound 20] | 0.67 |  | 0.39 |  |  |  | 
O[C@@H]1C(c2ccccc2)=C[C@@]2(c3ccccc3)OOC3(CCCC3)O[C@@H]12 [Compound 11] | 4.7 | 73.8 | 1.85 | 1.16 |  |  | 
OO[C@@H]1C(c2ccccc2)=C[C@@]2(c3ccccc3)OOC3(CCCCC3)O[C@@H]12 [Compound 13] | 2.2 | 33.9 | 1.47 | 0.93 |  |  | 
C1=C(c2ccccc2)C[C@@]2(c3ccccc3)OOC3(CCOCC3)O[C@@H]12 [Compound 12] | 18.7 | 295.3 | 1.10 | 0.67 |  |  | most important activity
C1=C(c2ccccc2)C[C@@]2(c3ccccc3)OOC3(CCCCC3)O[C@@H]12 [Compound 5] | 0.26 | 1.5 | 0.20 | 0.20 |  |  | 
CCC1(C)OO[C@]2(c3ccccc3)CC(c3ccccc3)=C[C@@H]2O1 (stereo partly drawn) [Compound 21] | 0.075 |  | 0.36 |  |  |  | 
O=C1CCC2(CC1)OO[C@]1(c3ccccc3)CC(c3ccccc3)=C[C@@H]1O2 (racemic) [Compound 17] | 2.1 |  | 1.06 |  |  |  | 
CC(C)OC(=O)O[C@@H]1C(c2ccccc2)=C[C@@]2(c3ccccc3)OOC(C)(C)O[C@@H]12 [Compound 8] | 0.10 | 4.2 | 0.16 | 0.18 |  |  | 
CC1(C)OO[C@]2(c3ccccc3)C=C(c3ccccc3)[C@@H](O)[C@@H]2O1 [Compound 2] | 0.12 | 5.4 | 0.25 | 0.27 |  | 0.10 | 
